“Also recorded” adds a separate entry of the source. Read-outs that look alike come from different tables or passages of the source.
How the values were obtained:
MDA-435 cells = assay: Cell cycle analysis in MDA-435 cells; assay type: cell-based, human; conditions: 20 h, Taxol 30 nM, Comp. 1 100 nM, Comp. 2 500 nM, Comp. 3 10 nM, Comp. 6 800 mM (so in the source), Comp. 46 50 nM
Experimental: MDA-435 cells were cultured in 6-well plates at 1×10^6 cells/well and were untreated (negative control), treated with Taxol (positive control), or treated with a compound of the invention at 37° C. for 20 h. The cells were detached with 1× trypsin and washed one time with PBS. Cycle TEST PLUS kit (BD PharMingen, Cat #340242) was used to stain the cells. Cell cycle was analyzed with FACScomp program (BS PharMingen).

SB cells = assay: Induction of apoptosis in SB cells (Annexin V/PI, FACS); assay type: cell-based; conditions: 24 h; for % Apoptotic Cells Gated: 1 μM; for cytotoxicity at 1 µM: read-out: % Dead Cells Gated; for viability at 1 µM: read-out: % Live Cells Gated
Experimental: SB cells (2×10^5 cells/mL) were cultured in 12-well plates (2 mL/well) and were left untreated (negative control), treated with Taxol (positive control), or treated with a compound of the invention for 24 h at 37° C. After treatment, the cells were washed one time with 1×PBS and stained with FITC labeled anti-Annexin V and PI (10 μg/ml) for 15 min at room temperature. The cells were analyzed by FACSCalibur (Becton Dickinson).

MDA-435 = assay: Cytotoxicity in MDA-435 tumor cells (Cell Counting Kit 8); assay type: cell-based; conditions: Homo sapiens, MDA435, MDA-435 cells, 70 h
Experimental: Tumor cell line, MDA-435, was seeded in 96-well plates at 1×10^4 cells/well in DMEM medium and treated with compounds at different concentrations. Taxol was used as a positive control. The cells were incubated at 37° C. for 70 h. Viability of the cells was measured with Cell Counting Kit 8 (Dojindo, Cat #CK04). IC50 of the compounds was determined by Five-Parameter Logistic equation.

[1] = test system: α-tubulin-YFP labeled microtubules in MCF7-α-tubulin-YFP cells; assay: Inhibition of tubulin polymerization in α-tubulin-YFP expressing cells (fluorescence imaging); assay type: cell-based; conditions: MCF7-α-tubulin-YFP cells treated with 1.0 μM compound
Experimental: Living cells were examined using a fluorescent microscope for α-tubulin-YFP expression.
CHO-α-tubulin-YFP or MCF7-α-tubulin-YFP cells were cultured in 2-well chambered cover-slips (Labtek (Campbell, Calif.) or Fisher Scientific) for 24 hours before treatment with a compound of the invention. For comparison of the effects of treatment on α-tubulin-YFP labeled microtubules with the compounds of the invention, CHO-α-tubulin-YFP or MCF7-α-tubulin-YFP cells were treated with the a compound of the invention, Taxol or equivalent concentrations of DMSO-containing media for various time periods before imaging. Tubulin-YFP fluorescence in living cells or fixed cells was captured using a standard filter for FITC and objectives of 20× or 60× magnification on a Nikon TE300 microscope with a Leica DC50 color digital camera (Leica, Bannockburn, Ill.) or a CoolSnap HQ monochrome CCD camera (Photonetrics, Tucson, Ariz.). The Leica DC50 and CoolSnapHQ cameras were controlled with Leica DC50 software and MetaVue/MetaMorph software, respectively (Universal Imaging Corp, Downingtown, Pa.).

[2] = test system: NCI-H460 (colon carcinoma); assay: In vitro cytotoxicity, MTS assay, NCI-H460; assay type: cell-based; conditions: Homo sapiens, 72 hours
Experimental: (§1) The in vitro cytotoxicity of the compounds of the invention was determined in the following human cell lines: HL-60 (T-cell leukemia), MDA-435 and MCF-7 (human breast carcinoma), NCI-H460 and H29 (colon carcinoma), DU145 (prostate carcinoma), and MES-SA and MES-SA/DX5 (uterine sarcoma). MES-SA is a model of uterine sarcoma, and the cell are sensitive to a number of chemotherapeutic agents including doxorubicin, dactinomycin, mitomycin C, taxol and bleomycin, but resistant to vinblastine and cisplatin. MES-SA/Dx5 was established in the presence of increasing concentrations of doxorubicin. […] All cells were purchased from ATCC.
(§2) The cell lines were maintained in RPMI1640 (GIBCO) supplemented with 10% FCS, 100 units/mL penicillin, 100 ug/ml streptomycin, and 2 mM L-glutamine. Cells were split every third day and diluted to a concentration of 2×10^5 cells/mL one day before the experiment was performed. All experiments were performed on exponentially growing cell cultures. Cell densities were 2.5×10^4 cells/mL in all experiments.
(§3) Compounds of the invention were prepared by dissolving the compound at a concentration of 10 mM in 100% DMSO. Final concentrations 10, 1, 0.1, 0.01 and 0.001 μM were obtained by diluting the stock solution directly into the tissue culture medium.

[3] = test system: DU145 (prostate carcinoma); assay: In vitro cytotoxicity, MTS assay, DU145; assay type: cell-based; conditions: Homo sapiens, DU-145, 72 hours
Experimental: as §1, §2, §3

[4] = test system: MES-SA/DX5 (uterine sarcoma, MDR-1); assay: cells; assay type: cell-based; conditions: Homo sapiens, MDR1, 72 h, MES/DX5 (MDR-1), MTS assay
Experimental: as §1, §2, §3

[5] = test system: MCF-7 (human breast carcinoma); assay: In vitro cytotoxicity, MTS assay, MCF-7; assay type: cell-based; conditions: MCF7, MCF-7 (Breast Cancer), 72 hours
Experimental: as §1, §2, §3

[6] = test system: MDA-435 (human breast carcinoma); assay: In vitro cytotoxicity, MTS assay, MDA-435; assay type: cell-based; conditions: MDA435, MDA-435 (Breast Cancer), 72 hours
Experimental: as §1, §2, §3

H29 (colon carcinoma) = assay: In vitro cytotoxicity, MTS assay, H29; assay type: cell-based; conditions: Homo sapiens, 72 hours
Experimental: as §1, §2, §3

HL-60 (T-cell leukemia) = assay: In vitro cytotoxicity, MTS assay, HL-60; assay type: cell-based, human; conditions: 72 hours
Experimental: as §1, §2, §3

MES-SA (uterine sarcoma) = assay: In vitro cytotoxicity, MTS assay, MES-SA; assay type: cell-based, human; conditions: MES-SA (Uterine Carcinoma), 72 hours
Experimental: as §1, §2, §3

[7] = Body weight change in MDA-MB-435S xenograft study (Example 10); assay type: in vivo, nude mouse; conditions: i.v.
Experimental: (§4) Seven to eight week old, female Crl:CD-1-nuBR (nude) mice were obtained from Charles River Laboratories (Wilmington, Mass., USA). Animals were housed 4-5/cage in micro-isolators, with a 12 hr/12 hr light/dark cycle, acclimated for at least 1 week prior to use and fed normal laboratory chow ad libitum. Studies were conducted on animals between 8 and 10 weeks of age at implantation. To implant MDA-MB-4355 tumor cells into nude mice, the cells were trypsinized as above, washed in PBS and resusupended at a concentration of 50×10(6) cells/ml in PBS. Using a 27 gauge needle and 1 cc syringe, 0.1 ml of the cell suspension was injected into the corpus adiposum of nude mice. The corpus adiposum is a fat body located in the ventral abdominal vicera in the right quadrant of the abdomen at the juncture of the os coxae (pelvic bone) and the os femoris (femur).
(§5) Compounds were formulated in either D5W (Compounds 169 and 174) or DRD (Compound 178). For formulations in D5W, solutions of test articles were prepared by dissolving the appropriate amounts of each compound in 5% dextrose in water (Abbott Laboratories, North Chicago, Ill., USA) by sonication in an ultrasonic water bath. For formulations in DRD, stock solutions of test articles were prepared by dissolving the appropriate amounts of each compound in dimethyl sulfoxide (DMSO) by sonication in an ultrasonic water bath. Stock solutions were prepared weekly, stored at −20° C. and diluted fresh each day for dosing. A solution of 20% Cremophore RH40 (polyoxyl 40 hydrogenated castor oil; BASF Corp., Aktiengesellschaft, Ludwigshafen, Germany) in 5% dextrose in water (Abbott Laboratories, North Chicago, Ill., USA) was also prepared by first heating 100% Cremophore RH40 at 50-60° C. until liquefied and clear, diluting 1:5 with 100% D5W, reheating again until clear and then mixing well. This solution was stored at room temperature for up to 3 months prior to use. To prepare DRD formulations for daily dosing, DMSO stock solutions were diluted 1:10 with 20% Cremophore RH40. […]

[8] = test system: human tumor cell line MDA-MB-435S; assay: Nude mouse xenograft, MDA-MB-435S (Example 10); assay type: in vivo
Experimental: as §4
Tumors were then permitted to develop in vivo until the majority reached an average of 100-200 mm^3 in tumor volume, which typically required 2-3 weeks following implantation. […] Tumor volumes (V) were calculated by caliper measurement of the width (W), length (L) and thickness (T) of tumors using the following formula: V=0.5236×(L×W×T). Animals were randomized into treatment groups so that the median tumor volumes of each group were similar at the start of dosing. % T/C values, as a measure of efficacy, were determined as follows: • (i) If ΔT>0: % T/C=[…] • (ii) If ΔT<0: % T/C=(ΔT/T0)×100 • (iii) ΔT=Change in median tumor volume between start of dosing and the end of study. • (iv) ΔC=Change in median tumor volume between start of dosing and the end of study. • (v) T0=Median tumor volume at start of dosing.
as §5, with “use.” for “use. To prepare DRD formulations for daily dosing, DMSO stock solutions were diluted 1:10 with 20% Cremophore RH40.”

[9] = Homo sapiens, HL-60, HL60 (Leukemia), read-out: IC50
[10] = Compound 169 at 2 mg/kg, Compound 174 at 4.55 mg/kg body weight, i.v., 1 time/week, 3 doses

Row | Compound | Apoptotic Population (%) (MDA-435 cells) | G0/G1 Phase (%) (MDA-435 cells) | G2/M Phase (%) (MDA-435 cells) | S Phase (%) (MDA-435 cells) | % Apoptotic Cells Gated (SB cells) | cytotoxicity at 1 µM (SB cells) | viability at 1 µM (SB cells) | IC50 (MDA-435) | Tubulin-YFP signal pattern in live cells [1] | IC50 [2] | IC50 [3] | IC50 [4] | IC50 [5] | IC50 [6] | IC50 (H29 (colon carcinoma)) | IC50 (HL-60 (T-cell leukemia); [9]) | IC50 (MES-SA (uterine sarcoma); Homo sapiens, read-out: IC50) | also measured
1 | COc1cc(-c2oncc2-c2ccc(Br)cc2)cc(OC)c1OC [Compound 1, 4-(4-Bromo-phenyl)-5-(3,4,5-trimethoxy-phenyl)-isoxazole] | 11.35% | 19.15% | 32.60% | 37.60% | 18.36% | 14.4% | 60.1% | 132 nM | cytoplasmic pattern |  |  |  |  |  |  |  |  | 
2 | CCc1cc(-c2oncc2-c2ccc(I)cc2)c(O)cc1OC [Compound 4, 4-(4-Iodo-phenyl)-5-(2-hydroxy-4-methoxy-5-ethyl-phenyl)-isoxazole] |  |  |  |  | 19.05% | 20.1% | 52.8% | 232 nM |  | 50 nM | 50 nM | 50 nM | 50 nM | 50 nM | 50 nM | 50 nM | 50 nM | 
3 | CCc1cc(-c2oncc2-c2ccc(Br)cc2)c(O)cc1OC [Compound 6, 4-(4-Bromo-phenyl)-5-(2-hydroxy-4-methoxy-5-ethyl-phenyl)-isoxazole] | 10.59% | 18.45% | 35.96% | 35.55% | 14.17% | 17.3% | 59.2% | 461 nM | cytoplasmic pattern |  |  |  |  |  |  |  |  | 
4 | COc1cc(-c2oncc2-c2ccc3c(c2)OCCO3)cc(OC)c1OC [Compound 46, 4-(2,3-Dihydro-benzo[1,4]dioxin-6-yl)-5-(3,4,5-trimethoxy-phenyl)-isoxazole] | 9.88% | 19.67% | 28.18% | 37.98% | 19.04% | 17.3% | 51% | 21 nM |  | 50 nM | 100 nM | 50 nM | 50 nM | 50 nM | 50 nM | 50 nM | 50 nM | 
5 | COc1ccc(-c2cnoc2-c2cc(OC)c(OC)c(OC)c2)cc1NC(=O)CN.Cl [Compound 169, 2-Amino-N-{2-methoxy-5-[5-(3,4,5-trimethoxy-phenyl)-isoxazol-4-yl]-phenyl}-acetamide] |  |  |  |  |  |  |  |  |  |  |  | 3 nM |  |  |  | 7 nM | 3 nM | overt toxicity (effect on body weights) ([7]; Compound 169 at 2 and 1 mg/kg, Compound 174 at 4.55 and 2.28 mg/kg body weight, 1 time per week, 3 doses): not overtly toxic; also recorded: not associated with overt toxicity; % T/C [8, 10]: 38%; in vivo growth rate of MDA-MB-435S tumors [8, 10]: substantially inhibited tumor growth; also recorded: substantially decreased the growth rate
6 | COc1ccc(-c2cnoc2-c2cc(OC)c(OC)c(OC)c2)cc1OP(=O)(O)O [Compound 178, Sodium 2-methoxy-5-[5-(3,4,5-trimethoxy-phenyl)-isoxazol-4-yl)-phenyl phosphate] |  |  |  |  |  |  |  |  |  |  |  |  |  |  |  |  |  | overt toxicity (effect on body weights) ([7]; Compound 178 at 25, 37.5 or 50 mg/kg body weight, 3 times per week, phosphate): not overtly toxic; also recorded: not associated with overt toxicity; efficacy on in vivo growth of MDA-MB-435S tumors ([8]; i.v. 3 times per week, dose escalation: 3 doses at 25, 3 at 37.5, 3 at 50 mg/kg, efficacy at 37.5 and 50 mg/kg, phosphate): began to show moderate efficacy; also recorded: began to show modest efficacy; IC50 (HL-60 (T-cell leukemia); HL60 (Leukemia), phosphate): 22 nM; IC50 (MES-SA (uterine sarcoma); phosphate): 4 nM

From patent publication US8269017B2, “Compounds for the treatment of proliferative disorders” (Synta Pharmaceuticals Corporation, priority 2005, dated 2012)
